Measured values: ChEMBL document CHEMBL1156506, “Changes to the HIV long terminal repeat and to HIV integrase differentially impact HIV integrase assembly, activity, and the binding of strand transfer inhibitors” (J Biol Chem, 2007)
pKd: −log10 of the molar value.

Test: Binding affinity to HIV wild type integrase
Parameters: species or system Human immunodeficiency virus

pKd: 7.68
SMILES: [3H]C([3H])([3H])n1c(N2CCCCS2(=O)=O)nc(C(=O)NCc2ccc(F)cc2)c(O)c1=O
